Patent publication US6491951B1, “Soluble compositions of toremifene” (Orion Corporation, priority 1998, dated 2002)

How the values were obtained:
[1] = Dissolving toremifene base in aqueous compositions with a solubility enhancing acid; format: physicochemical
Source text: The compositions of the invention can be prepared e.g. by mixing an amount of a solubility enhancing acid of the invention and purified water, adding thereafter toremifene base or a pharmaceutically acceptable salt thereof and agitating the mixture. pH may be adjusted with a water solution of corresponding acid salt or e.g. sodium hydroxide. The solubility enhancing agent is preferably used in molar excess with respect to toremifene or a pharmaceutically acceptable salt thereof. More preferably, the molar excess is at least about 1.5 fold, and most preferably at least about 2 fold, e.g. from about 2 to about 100 fold, typically from about 2 to about 10 fold.
The experiments also compare the effect of solubility enhancing agents of the invention to other acids such as hydrochloric acid, gluconic acid or citric acid.
Glacial acetic acid and purified water were mixed, toremifene base was added and dissolved. pH of the solution was about 4.
Lactic acid (85% water solution) and purified water were mixed, toremifene base was added and dissolved.
Formic acid and purified water were mixed, toremifene base was added and dissolved.
Toremifene base was dissolved in methanesulfonic acid, then purified water was added.
Lactic acid (85% water solution) and purified water were mixed, toremifene base was added and dissolved. pH was adjusted to about 5 by sodium lactate (50% water solution).
Manufactured as above but pH was adjusted to about 5 with sodium hydroxide.
Hydrochloric acid and purified water were mixed, toremifene base was added. Toremifene was not dissolved.
Sodium gluconate, concentrated hydrochloric acid and purified water were mixed, toremifene base was added. Toremifene was not dissolved.
Toremifene base and 30% water solution of citric acid were mixed together and ethanol was added gradually. Toremifene was not dissolved.

[2] = background statement; cited from earlier work
pKa value of toremifene = format: physicochemical
[3] = Water solubility of toremifene and its salts; format: physicochemical; conditions: compared with toremifene citrate

Dissolution of toremifene base ([1]; Example 1: 18.4% toremifene base, glacial acetic acid 9.0%, purified water 72.6%, pH about 4)	Toremifene base content of the aqueous solution (by weight of the composition) ([1]; Example 1: glacial acetic acid 9.0%, purified water 72.6%, pH of the solution about 4) [%]	Dissolution of toremifene base ([1]; Example 2: 52.6% toremifene base, lactic acid (85%) 24.0%, purified water 23.4%)	Toremifene base content of the aqueous solution (by weight of the composition) ([1]; Example 2: lactic acid (85%) 24.0%, purified water 23.4%) [%]	Dissolution of toremifene base ([1]; Example 3: 8.2% toremifene base, formic acid 1.6%, purified water 90.2%)	Toremifene base content of the aqueous solution (by weight of the composition) ([1]; Example 3: formic acid 1.6%, purified water 90.2%) [%]	Dissolution of toremifene base ([1]; Example 4: 16.7% toremifene base dissolved in methanesulfonic acid 66.6%, then purified water 16.7% added)	Toremifene base content of the aqueous solution (by weight of the composition) ([1]; Example 4: methanesulfonic acid 66.6%, purified water 16.7%) [%]	Dissolution of toremifene base ([1]; Example 5: 3.7% toremifene base, lactic acid (85%) 1.7%, sodium lactate (50%) 4.4%, purified water 90.2%, pH about 5)	Toremifene base content of the aqueous solution (by weight of the composition) ([1]; Example 5: lactic acid (85%) 1.7%, sodium lactate (50%) 4.4%, purified water 90.2%, pH about 5) [%]	Toremifene base content of the aqueous solution (by weight of the composition) ([1]; Example 6: lactic acid (85%) 18.2%, sodium hydroxide 2 N 27.3%, purified water 18.2%, pH about 5) [%]	Dissolution of toremifene base ([1]; Example 7 (reference): 9.1% toremifene base, hydrochloric acid 1 N 31.8%, purified water 59.1%)	Dissolution of toremifene base ([1]; Example 8 (reference): 1.0% toremifene base, sodium gluconate 1.0%, concentrated hydrochloric acid 1.0%, purified water 97.0%)	Dissolution of toremifene base ([1]; Example 9 (reference): 1.0% toremifene base, citric acid (30%) 10.3%, ethanol 88.7%)	Concentration of toremifene base solutions that can be prepared ([1]; two fold molar excess of lactic acid and purified water)	Concentration of toremifene base solutions that can be prepared ([1]; two fold molar excess of lactic acid, pH adjusted to about 5 with sodium hydroxide)	pKa (pKa value of toremifene)	Molecule	Solubility in water [2]	Solubility in distilled water relative to toremifene citrate [3]
dissolved	18.4	dissolved	52.6	dissolved	8.2	A clear solution was obtained	16.7	dissolved	3.7	36.3	not dissolved	not dissolved	not dissolved	about 50 w-%	about 36 w-%	8	CN(C)CCOc1ccc(/C(=C(/CCCl)c2ccccc2)c2ccccc2)cc1 [Toremifene base, toremifene]	poorly soluble in water	–
–	–	–	–	–	–	–	–	–	–	–	–	–	–	–	–	–	toremifene mesylate	–	about 70 times higher
